Results taken from patent US10265318B2, “Medicinal drug with activity against gram positive bacteria, mycobacteria and fungi” (priority 2015, dated 2019).

Columns and labels:
bacteria and fungi = assay: Antimicrobial activity, overall comparison of the substances; format: cell-based
S. aureus MRSA 24/31 = assay: MIC, broth microdilution or agar dilution (CLSI); format: cell-based, Staphylococcus aureus
S. aureus MRSA 201/010 = assay: MIC, broth microdilution or agar dilution (CLSI); format: cell-based, Staphylococcus aureus
[1] = system: Candida albicans ATCC 10231; assay: MIC, broth microdilution or agar dilution (CLSI); format: cell-based; conditions: C. albicans ATCC 10231
[2] = system: Aspergillus fumigatus ATCC 204305; assay: MIC, broth microdilution or agar dilution (CLSI); format: cell-based; conditions: A. fumigatus ATCC 204305
[3] = system: biofilms of S. aureus ATCC 29213; assay: 24-hour action upon 24-hour biofilms in 96-well plates, CFU count; conditions: S. aureus ATCC 29213 biofilm
Description: (§1) Biofilms used in testing were produced by 24-hour cultivation in 96-well plates.

[4] = system: biofilms of S. aureus MRSA 24/31; assay: as above; conditions: S. aureus MRSA 24/31 biofilm
Description: as §1

[5] = system: biofilms of S. aureus MRSA 201/010; assay: as above; conditions: S. aureus MRSA 201/010 biofilm
Description: as §1

MSSA strain ATCC 29213 = assay: MIC, broth macrodilution (CLSI); format: cell-based, S. aureus; conditions: planktonic, inoculum 10^5 cfu/mL
VRSA strain VT-V-18 = assay: MIC, broth macrodilution (CLSI); conditions: planktonic, inoculum 10^5 cfu/mL
Protocol: (§2) The MICs were determined using a broth macrodilution method with cation-adjusted Mueller-Hinton broth II (Becton Dickinson) at standard inoculum (10^5 cfu/mL) following the CLSI recommendations.

VRSA strain VT-E-25 = assay: MIC, broth macrodilution (CLSI); conditions: planktonic, inoculum 10^5 cfu/mL
Protocol: as §2

VRSA strain VT-A-199 = assay: MIC, broth macrodilution (CLSI); conditions: planktonic, inoculum 10^5 cfu/mL
Protocol: as §2

COc1ccc(CN2C(=O)NC(=O)C(=Cc3cc(Br)cc(Br)c3O)C2=O)cc1 [Compound 15, 1-(4-methoxybenzyl)-5-(3,5-dibromo-2-hydroxybenzylidene) perhydropyrimidine-2.4,6-trione]
antimicrobial activity, comparison among the inventive substances (bacteria and fungi): best activity

O=Cc1cc(Br)cc([N+](=O)[O-])c1[O-].[K+] [Compound 19, 2-formyl-4-bromo-6-nitro potassium phenolate]
antimicrobial activity, comparison among the inventive substances (bacteria and fungi): best activity

CC1(C)SC2C(NC(=O)[C@H](N)c3ccccc3)C(=O)N2C1C(=O)O (stereo partly drawn) [ampicillin, 6-[[(2R)-aminophenylacetyl]amino]-3,3-dimethyl-7-oxo-4-thia-1-azabicyclo[3.2.0]heptane-2carboxylic acid]
MIC (S. aureus MRSA 24/31): no effect
MIC (S. aureus MRSA 201/010): no effect
MIC [1]: no effect
MIC [2]: no effect
decrease of the number of CFU in biofilm ([3]; 10 mg/l): 10 times
effect on the number of CFU in biofilm ([4]; 10 mg/l): no effect whatsoever
effect on the number of CFU in biofilm ([5]; 10 mg/l): no effect whatsoever

O=C1NC(=O)C(=Cc2cc(Br)cc(Br)c2O)C(=O)N1 [Compound 1, 5-(3,5-dibromo-2-hydroxybenzylidene) perhydropyrimidine-2.4,6-trione]
MSSA strain MIC, ATCC 29213 (MSSA strain ATCC 29213): 0.7 mg/L
antimicrobial activity, comparison among the inventive substances (bacteria and fungi): best activity
VRSA strain MIC, VT-V-18 (VRSA strain VT-V-18): 0.7 mg/L
VRSA strain MIC, VT-E-25 (VRSA strain VT-E-25): 1.5 μg/ml
VRSA strain MIC, VT-A-199 (VRSA strain VT-A-199): 0.07 mg/L
decrease of the number of CFU in biofilm ([3]; 24-hour action): 10,000 times
decrease of the number of CFU in biofilm ([4]; 24-hour action): 10,000 times
decrease of the number of CFU in biofilm ([5]; 24-hour action): 10,000 times

O=Cc1cc(Br)cc(Br)c1[O-].[Na+] [Compound 17, 2-formyl-4,6-dibromo sodium phenolate]
antimicrobial activity, comparison among the inventive substances (bacteria and fungi): best activity
